Laboratory results taken from ChEMBL document CHEMBL5620410, “Crystal structures of non-uracil ring fragments in complex with Mycobacterium tuberculosis uracil DNA glycosylase (MtUng) as a starting point for novel inhibitor design: A case study with the barbituric acid fragment” (Eur J Med Chem, 2023).

Legend:
[1] = Inhibition of Mycobacterium tuberculosis Uracil-DNA glycosylase using 5' 32P end-labelled uracil DNA containing oligomer (5'-ctcaagtgUaggcatgcttttgcatgcctgcacttga-3') as substrate preincubated with enzyme for 15 mins followed by incubation on ice for 5 mins and incubation at room temperature for 5 mins and later incubated with substrate for 15 mins by radioactivity based assay
[2] = Inhibition of Mycobacterium tuberculosis Uracil-DNA glycosylase using 5'-FAM-CUUUUUGAGCTTTTGCTCAAAAAG-3'-BHQ-1 as substrate measured every 2 mins for 40 mins by fluorescence based analysis

SMILES | IC50 [1] | IC50 [2]
O=C(O)c1c[nH]c(=O)[nH]c1=O | 2.4 mM | 15.9 mM
O=C(O)c1[nH]c(=O)[nH]c(=O)c1F | 2.8 mM | 2.93 mM
COc1cc2nc(O)nc(O)c2cc1OC | – | 0.93 mM
Oc1ncc(O)c(O)n1 | 1.2 mM | 2.8 mM
O=C1NC(=O)C(=Cc2ccc([N+](=O)[O-])cc2)C(=O)N1 | 1 mM | –
COC(=O)COc1ccc(C=C2C(=O)NC(=O)NC2=O)cc1 | 0.5 mM | 0.33 mM
COC(=O)CCCOc1ccc(C=C2C(=O)NC(=O)NC2=O)cc1 | 3 mM | –
COc1cccc(C=C2C(=O)NC(=O)NC2=O)c1 | 1.9 mM | –
COC(=O)c1ccc(OCCOc2ccc(C=C3C(=O)NC(=O)NC3=O)cc2)cc1 | 1.2 mM | –
COC(=O)c1cccc(OCCOc2ccc(C=C3C(=O)NC(=O)NC3=O)cc2)c1 | 2.4 mM | –
COC(=O)c1ccccc1OCCCOc1ccc(C=C2C(=O)NC(=O)NC2=O)cc1 | 1.6 mM | –
O=C1NC(=O)C(=Cc2ccc(OCCOc3ccccc3C(=O)O)cc2)C(=O)N1 | 1.9 mM | 1.1 mM
O=C1NC(=O)C(=Cc2ccc(OCCCOc3ccccc3C(=O)O)cc2)C(=O)N1 | 0.7 mM | –
COC(=O)c1ccccc1OCCOc1ccc(C=C2C(=O)NC(=O)NC2=O)cc1 | 0.1 mM | –
COC(=O)COc1ccccc1C=C1C(=O)NC(=O)NC1=O | – | 5.55 mM
COC(=O)COc1cccc(C=C2C(=O)NC(=O)NC2=O)c1 | – | 10.4 mM
COC(=O)c1ccc(OCCOc2ccccc2C=C2C(=O)NC(=O)NC2=O)cc1 | 3.5 mM | –
COC(=O)CCCOc1ccccc1C=C1C(=O)NC(=O)NC1=O | – | 0.99 mM
O=Cc1cc(=O)[nH]c(=O)[nH]1 | 1 mM | 6.51 mM
COC(=O)CCCOc1cccc(C=C2C(=O)NC(=O)NC2=O)c1 | – | 4.2 mM
COC(=O)c1ccccc1OCCOc1ccccc1C=C1C(=O)NC(=O)NC1=O | – | 1.06 mM
O=C1NC(=O)C(=Cc2ccc(Br)cc2)C(=O)N1 | 1.5 mM | –
O=C1CC(=O)NC(=O)N1 [BARBITURIC ACID] | 1 mM | 7.29 mM
Cc1cc2nc3[nH]c(=O)[nH]c(=O)c3nc2cc1C [LUMICHROME] | 1.5 mM | –
O=C(O)c1cc(=O)[nH]c(=O)[nH]1 [OROTIC ACID] | 2.3 mM | 14.2 mM
O=C1CSC(=O)N1 [THIAZOLIDINEDIONE] | – | 17.3 mM
O=c1cc[nH]c(=O)[nH]1 [URACIL] | 0.8 mM | 2.05 mM
Oc1nc(O)c2nc(O)[nH]c2n1 [URIC ACID] | 1.7 mM | 16.4 mM
